One series has as its system U251 human glioma cells. Kind of series: MTT cytotoxicity assay, U251 glioma cells. The note with it: U251; result in words. An excerpt:
In vitro efficacy of the present composition can be determined using methods well known in the art. For example, the cytoxicity of the present monoterpene (or sesquiterpene) and/or the therapeutic agents may be studied by MTT [3-(4,5-dimethylthiazol-2-yl)-2,5-diphenyl tetrazolium bromide] cytotoxicity assay. MTT assay is based on the principle of uptake of MTT, a tetrazolium salt, by metabolically active cells where it is metabolized into a blue colored formazon product, which can be read spectrometrically. J. of Immunological Methods 65: 55 63, 1983. The cytoxicity of the present monoterpene (or sesquiterpene) derivative and/or the therapeutic agents may be studied by colony formation assay. Functional assays for inhibition of VEGF secretion and IL-8 secretion may be performed via ELISA. Cell cycle block by the present monoterpene (or sesquiterpene) derivative and/or the therapeutic agents may be studied by standard propidium iodide (PI) staining and flow cytometry. Invasion inhibition may be studied by Boyden chambers. In this assay a layer of reconstituted basement membrane, Matrigel, is coated onto chemotaxis filters and acts as a barrier to the migration of cells in the Boyden chambers. Only cells with invasive capacity can cross the Matrigel barrier. Other assays include, but are not limited to cell viability assays, apoptosis assays, and morphological assays.
First cytotoxicity assays were carried out after cells were treated with dimethyl-celecoxib (DMC) alone.
Then U87, A172 and U251 cells were treated with dimethyl celecoxib bisPOH carbamate (POH−DMC) (e.g., synthesized by the method in Example 1), and the MTT cytotoxicity assays performed (FIG. 2).
First cytotoxicity assays were carried out after cells were treated with temozolomide (TMZ) alone, the standard alkylating agent used in the treatment of malignant gliomas.
Then TMZ-resistant glioma cell lines U87, A172 and U251 cells were treated with TMZ-POH (e.g., synthesized by the method in Example 3).
To compare the cytotoxicity of Rolipram POH Carbamate (POH-Rolipram) (e.g., synthesized by the method in Example 5) with rolipram, […] inducing differentiation and apoptosis in glioma cells, A172, U87, U251 and LN229 human glioma cells were treated with either POH-Rolipram or rolipram for 48 hours.
MTT cytotoxicity assays were carried out after cells were treated with the TMZ-POH conjugate. The MTT cytotoxicity assays were carried out as described in Chen T C, et al. Green tea epigallocatechin gallate enhances therapeutic efficacy of temozolomide in orthotopic mouse glioblastoma models. Cancer Lett. 2011 Mar. 28; 302(2):100-8.
Background: Formazan colour is commonly taken as a measure of viable cells.

In a further series the test system is a variant of MDA-MB-231. Kind of series: In vitro sensitivity of the cell line used in vivo. The class given is cell-based. As to conditions: Homo sapiens, in vitro sensitivity to TMZ.
The conditions of series [1]: in vitro and in vivo; cited from earlier work.
For series [2] the following is noted: CSF versus systemic circulation; cited from earlier work.
The subject of another series is normal astrocytes. The series is described as follows: MTT cytotoxicity assay, normal astrocytes. The class given is cell-based. As to conditions: in words. An excerpt:
(§1) Cancer Lett. 2011 Mar. 28; 302(2):100-8.

The subject of series [3] is brain endothelial cells (BEC; confluent and subconfluent). Kind of series: MTT cytotoxicity assay, brain endothelial cells. As to conditions: in words. The class given is cell-based.
Text: as §1

For series [4], the system named is tumor brain endothelial cells (TuBEC). Kind of series: MTT cytotoxicity assay, tumor brain endothelial cells. The class given is cell-based. The note with it: in words.
Text: as §1

Series [5] deals with γ-H2AX. Kind of series: Western blot of DNA damage marker in MDA-MB-231 cells. In kind it is cell-based, human. The note with it: MDA-MB-231, 50 μM, time course of 72 hours; in words. On the procedure:
(§2) Actin was used as a loading control.
(§3) Total cell lysates were analyzed by Western blot analysis as described in P. Pyrko et al. Downregulation of survivin expression and concomitant induction of apoptosis by celecoxib and its non-cyclooxygenase-2-inhibitory analog, dimethyl-celecoxib (DMC), in tumor cells in vitro and in vivo. Mol Cancer 5 (2006) 19. The primary antibodies were purchased from Cell Signaling Technology (Beverly, Mass.) or Santa Cruz Biotechnology, Inc. (Santa Cruz, Calif.) and used according to the manufacturers' recommendations. All immunoblots were repeated at least once to confirm the results.
A general note: Immunoblotting shows a protein as a band on a membrane.

Series [6] relates to γ-H2AX. The series is described as follows: Western blot of DNA damage marker in MCF7 cells. As to conditions: MCF-7, 50 μM, 48 hours, in words. In kind it is cell-based, human. As to the method:
as §2, §3

In the next series the test system is MGMT-negative cell lines. Kind of series: Colony formation assay, MGMT-negative breast cancer cell lines (summary). In kind it is cell-based, human. As to the method:
Depending on the cell line (and plating efficiency), 200-350 cells were seeded into each well of a 6-well plate. […] Thereafter, the drugs were removed, fresh growth medium was added, and the cells were kept in culture undisturbed for 12-16 days, during which time the surviving cells spawned colonies of descendants. Colonies (defined as groups of >50 cells) were visualized by staining for 4 hours with 1% methylene blue (in methanol), and then were counted.

Series [7] deals with TMZ resistant cells (U251TR). Kind of series: MTT cytotoxicity assay, U251TR cells. In kind it is cell-based, human. The note with it: in words.
Text: as §1

A further series in a line: Lipophilicity. In kind it is physicochemical. The note with it: data not shown; in words.
The test system of a further series is CHOP. Kind of series: Western blot of ER stress in TMZ sensitive and resistant U251 glioma cells. In kind it is cell-based, human. As to the method: Western blots were performed after TMZ sensitive and resistant glioma cells were treated with the TMZ-POH conjugate for 18 hr.

Each structure is given as a SMILES string. “Also recorded” adds a separate entry of the source.

Turning to `Cn1nnc2c(C(N)=O)ncn2c1=O` [TMZ, temozolomide, reference compound], in the series on U251 human glioma cells, the “cytotoxicity (MTT assay)” value is “minimal cytotoxicity”. The compound also displayed an IC50 in the series on a variant of MDA-MB-231 of less than 10 µM. In series [1], the half-life is 1 to 2 h. Also, in series [2], the “drug levels in the cerebrospinal fluid (CSF) lower than in plasma” value is on record as 80%.

Take `C=C(C)[C@@H]1CC=C(COC(=O)NC(=O)c2ncn3c(=O)n(C)nnc23)CC1` [TMZ-POH]: the “cytotoxicity (MTT assay)” value is recorded as “not towards normal astrocytes; also recorded: did not induce significant cytotoxicity” in the series on normal astrocytes; “did not induce significant cytotoxicity” in series [3] (confluent BEC); “Mild to moderate cytotoxicity” in series [3] (subconfluent BEC, high concentrations); “substantially higher kill rates; also recorded: demonstrated cytotoxicity” in the series with U251 human glioma cells; “did not induce significant cytotoxicity” in series [4]; “demonstrated cytotoxicity” in series [7]. In addition, the entries for the “levels of γ-H2AX” value in the series on γ-H2AX [5] and in the series on γ-H2AX [6] (pre-treated with O6-BG (30 μM)) were “substantially increased levels of γ-H2AX; also recorded: much stronger as compared to TMZ” and “increased levels of γ-H2AX became readily apparent”, respectively. For the same compound, the “phosphorylation of H2AX” value in the series with γ-H2AX [6] (without O6-BG) is listed as “no increased phosphorylation of H2AX”. The compound further showed a concentration for half-maximal inhibition (IC50) in the series on MGMT-negative cell lines (Homo sapiens, range over MGMT-negative cell lines) of 1.2 to 4.6 µM. Besides, the “active in the range of” value in the series on MGMT-negative cell lines (MGMT-negative cells) was 1 to 5 µM. For the same compound, the lipophilicity result in the series “Lipophilicity” is on record as “increased over TMZ”. Moreover, in the series on CHOP (18 hr treatment), the “concentration at which activation of the proapoptic protein CHOP was shown (as low as)” value came to 60 µM. Also, the “ER stress (ERS)” value with CHOP (TMZ sensitive and resistant U251, 18 hr, in words) is on record as “induces ER stress”.

The term IC50 denotes the concentration that gives 50% inhibition. Low readings indicate inhibition by little substance, high ones a need for much substance. One may read the half-life as how long it takes for the measured level to halve.

The values are drawn from US9913838B2, “Methods of treating cancer using compositions comprising perillyl alcohol derivative” (NEONC TECHNOLOGIES INC., priority 2010, dated 2018).
